Experimental data published in paper PMC11822212, “High-throughput screening identifies Aurora kinase B as a critical therapeutic target for Merkel cell carcinoma” (Nature Communications, 2025).
Counter-ions that a name gives are not always drawn. Like-named read-outs stand apart in the source and are kept apart here.

How the values were obtained:
[1] = system: MCC13 cells (VN-MCC); test: qHTS cell viability (CellTiter-Glo, 72 h; primary and follow-up small molecule screen); format: cell-based, human
[2] = system: MCC26 cells (VN-MCC); test: as above; format: cell-based, human
[3] = system: UISO cells (VN-MCC); test: as above; format: cell-based, human
[4] = system: WAGA cells (VP-MCC); test: as above; format: cell-based, human
[5] = system: MKL-1 cells (VP-MCC); test: as above; format: cell-based, human
[6] = system: MKL-2 cells (VP-MCC); test: as above; format: cell-based, human
[7] = system: HACAT cells; test: qHTS cell viability (CellTiter-Glo, 72 h; primary screen), control cell line; format: cell-based, human
[8] = system: HEK293T cells; test: as above; format: cell-based, human
[9] = system: NIH-3T3 cells; test: as above; format: cell-based, mouse
[10] = system: CRL-7250 cells; test: as above; format: cell-based
[11] = system: MCC cell lines (WAGA, MKL-1, MKL-2, MCC13, MCC26, UISO); test: qHTS cell viability, all six MCC cell lines as a group (mean AUC, MCC.avg); format: cell-based, human
[12] = system: VP-MCC cell lines (WAGA, MKL-1, MKL-2); test: qHTS cell viability, VP-MCC cell lines as a group (mean AUC, VP.MCC.avg); format: cell-based, human
[13] = system: VN-MCC cell lines (MCC13, MCC26, UISO); test: qHTS cell viability, VN-MCC cell lines as a group (mean AUC, VN.MCC.avg); format: cell-based, human
[14] = system: control cell lines (HACAT, HEK293T, CRL-7250, NIH-3T3); test: qHTS cell viability, control cell lines as a group (mean AUC, Control.avg); format: cell-based
[15] = system: six MCC cell lines and four control cell lines; test: qHTS cell viability, all 10 cell lines screened; format: cell-based
[16] = NPC library, qHTS dose-response AUC, MCC13
[17] = NPC library, qHTS dose-response AUC, MCC26
[18] = NPC library, qHTS dose-response AUC, UISO
[19] = NPC library, qHTS dose-response AUC, WAGA
[20] = NPC library, qHTS dose-response AUC, MKL1
[21] = NPC library, qHTS dose-response AUC, MKL2
[22] = NPC library, qHTS dose-response AUC, HACAT control
[23] = NPC library, qHTS dose-response AUC, HEK293T control
[24] = NPC library, qHTS dose-response AUC, NIH3T3 control
[25] = NPC library, qHTS dose-response AUC, CRL7250 control
[26] = NPC library, mean AUC of six MCC cell lines
[27] = NPC library, mean AUC of VP-MCC cell lines
[28] = NPC library, therapeutic window: Control avg AUC minus VP-MCC avg AUC
[29] = NPC library, mean AUC of VN-MCC cell lines
[30] = NPC library, therapeutic window: Control avg AUC minus VN-MCC avg AUC
[31] = NPC library, mean AUC of control cell lines
[32] = NPC library, therapeutic window: Control avg AUC minus MCC avg AUC
[33] = NPC library, 8-point DRC, area under dose-response curve
[34] = NPC library, 8-point DRC, control cell line

## Cc1ccsc1C(=CCCN1CCC[C@@H](C(=O)O)C1)c1sccc1C [Tiagabine hydrochloride]
[1]; [16]
  MCC13_AUC: 504.961
[2]; [17]
  MCC26_AUC: 535.626
[3]; [18]
  UISO_AUC: 537.732
[4]; [19]
  WAGA_AUC: 356.213
[5]; [20]
  MKL1_AUC: 342.483
[6]; [21]
  MKL2_AUC: 263.998
[7]; [22]
  HACAT_AUC: 471.067
[8]; [23]
  HEK293T_AUC: 447.539
[9]; [24]
  NIH3T3_AUC: 484.889
[10]; [25]
  CRL7250_AUC: 426.76
[11]; [26]
  MCC_Avg_AUC: 423.502
[12]; [27]
  VP-MCC_Avg_AUC: 320.898
[12]; [28]
  Control-VP-MCC: 136.666
[13]; [29]
  VN-MCC_Avg_AUC: 526.106
[13]; [30]
  Control-VN-MCC: -68.5423
[14]; [31]
  Control_Avg_AUC: 457.564
[15]; [32]
  Control-MCC: 34.0617

## C=CCC1([C@H](C)CCC)C(=O)NC(=O)NC1=O [S-(-)-Secobarbital]
[1]
  MCC13_AUC: 460.136
[2]
  MCC26_AUC: 414.278
[3]
  UISO_AUC: 438.072
[4]
  WAGA_AUC: 434.137
[5]
  MKL1_AUC: 441.594
[6]
  MKL2_AUC: 429.062
[7]
  HACAT_AUC: 491.817
[8]
  HEK293T_AUC: 485.529
[9]
  NIH3T3_AUC: 473.981
[10]
  CRL7250_AUC: 492.207
[11]
  MCC_Avg_AUC: 436.213
[12]
  Control-VP-MCC: 50.9524
  VP-MCC_Avg_AUC: 434.931
[13]
  Control-VN-MCC: 48.3879
  VN-MCC_Avg_AUC: 437.495
[14]
  Control_Avg_AUC: 485.883
[15]
  Control-MCC: 49.6701

## N=C(N)NC(=O)c1nc(Cl)c(N)nc1N [Amiloride]
[1]; [16]
  MCC13_AUC: 460.482
[2]; [17]
  MCC26_AUC: 436.049
[3]; [18]
  UISO_AUC: 438.294
[4]; [19]
  WAGA_AUC: 426.991
[5]; [20]
  MKL1_AUC: 439.734
[6]; [21]
  MKL2_AUC: 417.455
[7]; [22]
  HACAT_AUC: 483.146
[8]; [23]
  HEK293T_AUC: 497.776
[9]; [24]
  NIH3T3_AUC: 492.231
[10]; [25]
  CRL7250_AUC: 484.959
[11]; [26]
  MCC_Avg_AUC: 436.501
[12]; [27]
  VP-MCC_Avg_AUC: 428.06
[12]; [28]
  Control-VP-MCC: 61.468
[13]; [29]
  VN-MCC_Avg_AUC: 444.942
[13]; [30]
  Control-VN-MCC: 44.5863
[14]; [31]
  Control_Avg_AUC: 489.528
[15]; [32]
  Control-MCC: 53.0271

## COc1ccc(CCN(C)CCCC(C#N)(c2cc(OC)c(OC)c(OC)c2)C(C)C)cc1OC (centres unmarked) [Gallopamil hydrochloride]
[1]; [33]
  MCC13_AUC: 438.844
[2]; [33]
  MCC26_AUC: 402.644
[3]; [33]
  UISO_AUC: 431.729
[4]; [33]
  WAGA_AUC: 444.909
[5]; [33]
  MKL1_AUC: 429.324
[6]; [33]
  MKL2_AUC: 457.405
[7]; [34]
  HACAT_AUC: 488.048
[8]; [34]
  HEK293T_AUC: 464.897
[9]; [34]
  NIH3T3_AUC: 476.798
[10]; [34]
  CRL7250_AUC: 487.096
[11]; [26]
  MCC_Avg_AUC: 434.143
[12]; NPC library, Control AUC minus VP-MCC AUC (therapeutic window)
  Control-VP-MCC: 35.3303
[12]; [27]
  VP-MCC_Avg_AUC: 443.879
[13]; NPC library, Control AUC minus VN-MCC AUC (therapeutic window)
  Control-VN-MCC: 54.804
[13]; [29]
  VN-MCC_Avg_AUC: 424.406
[14]; [31]
  Control_Avg_AUC: 479.21
[15]; NPC library, Control AUC minus MCC AUC (therapeutic window)
  Control-MCC: 45.0671
